Experimental findings from ChEMBL document CHEMBL1909046, “DrugMatrix in vitro pharmacology data” are described below.

For test [1], the target named is Tyrosine-protein kinase Lck (Homo sapiens, UniProt P06239). Briefly: DRUGMATRIX: Protein Tyrosine Kinase, LCK enzyme inhibition (substrate: Poly(Glu:Tyr)). Type of test: cell-based, Insect cells. Particulars: Not Active = under 50% inhibition at 10 µM.
A further test addresses T1, Substance-K receptor (Homo sapiens, UniProt P21452).
T1 sequence (P21452 whole entry): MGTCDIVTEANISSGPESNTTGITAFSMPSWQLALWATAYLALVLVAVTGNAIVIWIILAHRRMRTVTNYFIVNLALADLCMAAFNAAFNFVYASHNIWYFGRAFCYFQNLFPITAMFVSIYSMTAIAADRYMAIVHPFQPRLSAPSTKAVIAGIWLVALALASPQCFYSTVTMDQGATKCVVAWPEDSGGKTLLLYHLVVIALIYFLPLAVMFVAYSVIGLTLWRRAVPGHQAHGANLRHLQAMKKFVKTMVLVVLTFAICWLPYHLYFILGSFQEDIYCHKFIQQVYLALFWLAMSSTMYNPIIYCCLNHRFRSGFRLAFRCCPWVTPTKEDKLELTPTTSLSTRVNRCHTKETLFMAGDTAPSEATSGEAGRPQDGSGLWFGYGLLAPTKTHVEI
Type of test: cell membranes, CHO, Membrane.

A further test has as its target Carbonic anhydrase 2 (Homo sapiens, UniProt P00918). Briefly: DRUGMATRIX: Carbonic Anhydrase II enzyme inhibition (substrate: 4-Nitrophenyl acetate (4-NPA)). Type of test: tissue-based, Erythrocyte. Particulars: erythrocyte; Not Active = under 50% inhibition at 10 µM.
The target of another test is T2, Endothelin-1 receptor (Homo sapiens, UniProt P25101). Note: in other assays of this panel Not Active means under 50% inhibition at 10 µM.
T2 sequence (P25101 whole entry): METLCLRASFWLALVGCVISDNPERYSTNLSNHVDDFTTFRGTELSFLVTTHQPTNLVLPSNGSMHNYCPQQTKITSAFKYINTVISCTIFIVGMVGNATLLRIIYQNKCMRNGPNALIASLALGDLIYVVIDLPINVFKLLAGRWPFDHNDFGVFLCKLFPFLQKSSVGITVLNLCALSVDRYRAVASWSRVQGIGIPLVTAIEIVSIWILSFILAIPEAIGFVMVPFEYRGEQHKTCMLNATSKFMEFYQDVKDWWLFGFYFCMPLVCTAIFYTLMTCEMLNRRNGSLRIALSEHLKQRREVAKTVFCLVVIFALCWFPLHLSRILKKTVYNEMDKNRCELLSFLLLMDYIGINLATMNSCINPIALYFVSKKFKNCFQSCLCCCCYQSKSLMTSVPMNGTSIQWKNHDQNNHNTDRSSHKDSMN
Type of test: cell membranes, Membrane. Conditions: cho-k1.

Another test deals with T3, Glucocorticoid receptor (Homo sapiens, UniProt P04150).
T3 sequence (P04150 whole entry): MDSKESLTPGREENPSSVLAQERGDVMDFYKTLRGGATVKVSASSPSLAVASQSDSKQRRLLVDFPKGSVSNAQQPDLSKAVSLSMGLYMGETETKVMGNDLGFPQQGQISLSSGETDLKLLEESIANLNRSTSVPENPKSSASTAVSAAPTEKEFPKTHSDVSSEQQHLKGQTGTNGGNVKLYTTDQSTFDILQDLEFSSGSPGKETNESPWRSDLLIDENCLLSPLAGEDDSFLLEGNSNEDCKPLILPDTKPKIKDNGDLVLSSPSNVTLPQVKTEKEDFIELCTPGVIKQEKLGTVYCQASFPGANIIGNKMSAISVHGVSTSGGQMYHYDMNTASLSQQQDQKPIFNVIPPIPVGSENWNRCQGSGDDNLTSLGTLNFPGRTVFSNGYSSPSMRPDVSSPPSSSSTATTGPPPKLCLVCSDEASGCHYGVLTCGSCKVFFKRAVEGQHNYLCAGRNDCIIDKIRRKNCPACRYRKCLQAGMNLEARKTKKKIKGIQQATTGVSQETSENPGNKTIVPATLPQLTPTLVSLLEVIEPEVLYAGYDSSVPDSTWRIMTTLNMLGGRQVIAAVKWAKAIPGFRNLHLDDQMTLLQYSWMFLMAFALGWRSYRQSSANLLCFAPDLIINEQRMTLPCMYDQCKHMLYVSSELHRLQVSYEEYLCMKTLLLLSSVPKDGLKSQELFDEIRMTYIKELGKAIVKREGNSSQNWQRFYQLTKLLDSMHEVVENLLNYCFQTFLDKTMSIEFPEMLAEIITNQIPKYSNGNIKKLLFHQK
Conditions: hela s3.

Test [2] has as its target Delta-type opioid receptor (Homo sapiens, UniProt P41143). Type of test: cell membranes, HEK293, Membrane. Note: in other assays of this panel Not Active means under 50% inhibition at 10 µM.
The target in the next test is T4, Leukotriene C4 synthase (Cavia porcellus, UniProt A6XA80).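 Note: enzyme inhibition assay of leukotriene C4 synthase, using LTA4 as the substrate; in other assays of this panel Not Active means under 50% inhibition at 10 µM.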
T4 sequence (A6XA80 whole entry): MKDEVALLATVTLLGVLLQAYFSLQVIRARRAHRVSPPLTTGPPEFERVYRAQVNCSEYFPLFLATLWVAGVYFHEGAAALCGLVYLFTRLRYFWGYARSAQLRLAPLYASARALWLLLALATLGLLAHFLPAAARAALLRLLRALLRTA
Type of test: tissue-based, Lung.
Throughout, for Ki: in other assays of this panel Not Active means under 50% inhibition at 10 µM.

Delta-type opioid receptor, sequence (P41143 whole entry): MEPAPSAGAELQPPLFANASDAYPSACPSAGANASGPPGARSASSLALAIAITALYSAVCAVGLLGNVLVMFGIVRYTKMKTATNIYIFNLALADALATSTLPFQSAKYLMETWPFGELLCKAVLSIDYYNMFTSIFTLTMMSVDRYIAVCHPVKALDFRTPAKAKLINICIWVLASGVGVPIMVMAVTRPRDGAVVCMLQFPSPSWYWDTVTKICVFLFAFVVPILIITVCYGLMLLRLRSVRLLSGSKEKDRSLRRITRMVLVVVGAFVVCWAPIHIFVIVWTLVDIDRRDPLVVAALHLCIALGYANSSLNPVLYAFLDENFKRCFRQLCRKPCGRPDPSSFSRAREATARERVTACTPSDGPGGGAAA
Tyrosine-protein kinase Lck, sequence (P06239 whole entry): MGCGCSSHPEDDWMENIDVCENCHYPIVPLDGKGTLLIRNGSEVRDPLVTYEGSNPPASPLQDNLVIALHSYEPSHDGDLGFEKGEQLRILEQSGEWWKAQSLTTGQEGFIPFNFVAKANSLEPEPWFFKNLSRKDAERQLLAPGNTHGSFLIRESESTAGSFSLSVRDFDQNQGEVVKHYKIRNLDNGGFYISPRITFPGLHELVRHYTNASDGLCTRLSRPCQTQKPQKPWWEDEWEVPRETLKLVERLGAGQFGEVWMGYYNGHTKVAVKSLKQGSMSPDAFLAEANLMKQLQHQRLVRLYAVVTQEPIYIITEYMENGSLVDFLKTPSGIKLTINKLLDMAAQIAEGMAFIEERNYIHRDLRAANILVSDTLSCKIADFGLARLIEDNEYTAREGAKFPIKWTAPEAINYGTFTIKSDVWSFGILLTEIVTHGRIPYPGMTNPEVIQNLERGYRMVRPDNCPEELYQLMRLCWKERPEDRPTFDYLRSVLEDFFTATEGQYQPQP

As for `CCOc1nc2cccc(C(=O)O)c2n1Cc1ccc(-c2ccccc2-c2nnn[nH]2)cc1`, the IC50 result (in test [1] (insect cells); on Substance-K receptor (cho); at Carbonic anhydrase 2; against Endothelin-1 receptor; at Glucocorticoid receptor; in test [2] (hek293)) was “Not Active” in each case. In addition, the IC50 entry against Leukotriene C4 synthase is “Not Active”.

With `COc1ccccc1N`, the IC50 result (in test [1] (insect cells); against Substance-K receptor (cho); against Carbonic anhydrase 2; against Endothelin-1 receptor; in test [2] (hek293); on Leukotriene C4 synthase) was “Not Active” each time.

As for `O=C(c1ccccc1F)N1CCC(Cc2ccccc2)CC1`, the IC50 entry (in test [1] (insect cells); at Substance-K receptor (cho); against Carbonic anhydrase 2; against Endothelin-1 receptor; against Glucocorticoid receptor; in test [2] (hek293)) was “Not Active” each time. On Leukotriene C4 synthase, the IC50 result is on record as “Not Active”.

Take `Cc1c(O)cccc1C(=O)N[C@@H](CSc1ccccc1)[C@H](O)CN1C[C@H]2CCCC[C@H]2C[C@H]1C(=O)NC(C)(C)C`: the IC50 was 79.2 µM in test [1] (read-out: IC50); 29.4 µM at Substance-K receptor (read-out: IC50); “Not Active” against Carbonic anhydrase 2; “Not Active” on Endothelin-1 receptor; 66.1 µM in test [2] (read-out: IC50); “Not Active” at Leukotriene C4 synthase. Moreover, the Ki on Substance-K receptor (read-out: Ki) came to 9.79 µM; in test [2] (read-out: Ki), 23.3 µM.

Turning to `ClC(Cl)(Cl)Cl` [CARBON TETRACHLORIDE], the IC50 entry (in test [1] (insect cells); against Substance-K receptor (cho); against Carbonic anhydrase 2; against Endothelin-1 receptor; in test [2] (hek293); on Leukotriene C4 synthase) was “Not Active” in each case.

In the case of `CC(C)NCC(O)c1ccccc1Cl` (centres undefined) [CLORPRENALINE], the IC50 result (in test [1] (insect cells); on Substance-K receptor (cho); against Carbonic anhydrase 2; against Endothelin-1 receptor; in test [2] (hek293); at Leukotriene C4 synthase) was “Not Active” throughout.

As for `C[C@]12CC[C@@H]3c4ccc(O)cc4CC[C@H]3[C@@H]1C[C@@H](O)[C@@H]2O` [ESTRIOL], the IC50 result (in test [1] (insect cells); against Substance-K receptor (cho); on Carbonic anhydrase 2; against Endothelin-1 receptor; in test [2] (hek293); on Leukotriene C4 synthase) was “Not Active” throughout.

For the molecule `C#C[C@]1(O)CC[C@H]2[C@@H]3CCC4=CC(=O)CC[C@]4(C)[C@H]3CC[C@@]21C` [ETHISTERONE], the IC50 entry (in test [1] (insect cells); against Substance-K receptor (cho); against Carbonic anhydrase 2; against Endothelin-1 receptor; in test [2] (hek293); at Leukotriene C4 synthase) was “Not Active” throughout.

In the case of `CC(O)(P(=O)(O)O)P(=O)(O)O` [ETIDRONIC ACID], the IC50 result (in test [1] (insect cells); against Substance-K receptor (cho); at Carbonic anhydrase 2; against Endothelin-1 receptor; in test [2] (hek293); at Leukotriene C4 synthase) was “Not Active” in each case.

With `CC(=O)OCC(=O)[C@@]1(O)CC[C@H]2[C@@H]3CCC4=CC(=O)CC[C@]4(C)[C@@]3(F)[C@@H](O)C[C@@]21C` [FLUDROCORTISONE ACETATE], the IC50 result (in test [1] (insect cells); at Substance-K receptor (cho); against Carbonic anhydrase 2; against Endothelin-1 receptor; in test [2] (hek293); against Leukotriene C4 synthase) was “Not Active” throughout.

Take `CCOC(=O)c1ncn2c1CN(C)C(=O)c1cc(F)ccc1-2` [FLUMAZENIL]: the IC50 result (in test [1] (insect cells); against Substance-K receptor (cho); on Carbonic anhydrase 2; on Endothelin-1 receptor; in test [2] (hek293); on Leukotriene C4 synthase) was “Not Active” in each case.

Turning to `CC(=O)OCC(=O)[C@@]12OC(C)(C)O[C@@H]1C[C@H]1[C@@H]3C[C@H](F)C4=CC(=O)C=C[C@]4(C)[C@@]3(F)[C@@H](O)C[C@@]12C` [FLUOCINONIDE], the half-maximal inhibitory concentration (IC50) entry (in test [1] (insect cells); against Substance-K receptor (cho); against Carbonic anhydrase 2; at Endothelin-1 receptor; in test [2] (hek293); at Leukotriene C4 synthase) was “Not Active” in each case.

As for `Cc1ccc(C)c(OCCCC(C)(C)C(=O)O)c1` [GEMFIBROZIL], the IC50 result (in test [1] (insect cells); against Substance-K receptor (cho); at Carbonic anhydrase 2; against Endothelin-1 receptor; in test [2] (hek293); on Leukotriene C4 synthase) was “Not Active” in each case.

For the molecule `CCCCC1=NC2(CCCC2)C(=O)N1Cc1ccc(-c2ccccc2-c2nnn[nH]2)cc1` [IRBESARTAN], the IC50 entry (in test [1] (insect cells); on Substance-K receptor (cho); at Carbonic anhydrase 2; against Endothelin-1 receptor; in test [2] (hek293); at Leukotriene C4 synthase) was “Not Active” throughout.

For the molecule `C[C@H]1COc2c(N3CCN(C)CC3)c(F)cc3c(=O)c(C(=O)O)cn1c23.C[C@H]1COc2c(N3CCN(C)CC3)c(F)cc3c(=O)c(C(=O)O)cn1c23.O` [LEVOFLOXACIN], the IC50 result (in test [1] (insect cells); at Substance-K receptor (cho); on Carbonic anhydrase 2; against Endothelin-1 receptor; in test [2] (hek293); on Leukotriene C4 synthase) was “Not Active” each time.

On to `CS(=O)(=O)Nc1ccc([N+](=O)[O-])cc1Oc1ccccc1` [NIMESULIDE], for which the IC50 result (in test [1] (insect cells); at Substance-K receptor (cho); against Carbonic anhydrase 2; on Endothelin-1 receptor; in test [2] (hek293); on Leukotriene C4 synthase) was “Not Active” in each case.

With `NC(=O)N1c2ccccc2CC(=O)c2ccccc21` [OXCARBAZEPINE], the IC50 result (in test [1] (insect cells); against Substance-K receptor (cho); against Carbonic anhydrase 2; on Endothelin-1 receptor; in test [2] (hek293); at Leukotriene C4 synthase) was “Not Active” in each case.

On to `CCN(CC)CCNC(=O)c1ccc(N)cc1` [PROCAINAMIDE], for which the IC50 entry (in test [1] (insect cells); on Substance-K receptor (cho); against Carbonic anhydrase 2; at Endothelin-1 receptor; in test [2] (hek293); against Leukotriene C4 synthase) was “Not Active” throughout.

On to `C[C@]12C=CC(=O)C=C1CC[C@H]1[C@@H]3C[C@@H](O)[C@](O)(C(=O)CO)[C@@]3(C)C[C@H](O)[C@@]12F` [TRIAMCINOLONE], for which the IC50 entry (in test [1] (insect cells); on Substance-K receptor (cho); on Carbonic anhydrase 2; against Endothelin-1 receptor; in test [2] (hek293); against Leukotriene C4 synthase) was “Not Active” each time.

For the molecule `CCN(C(C)=O)c1cccc(-c2ccnc3c(C#N)cnn23)c1` [ZALEPLON], the IC50 entry (in test [1] (insect cells); against Substance-K receptor (cho); at Carbonic anhydrase 2; at Endothelin-1 receptor; in test [2] (hek293); against Leukotriene C4 synthase) was “Not Active” in each case.
